Experimental data from the NIST ThermoML archive (doi:10.1021/je300482b).

Assay: xn = mol fraction of the nth substance listed
Conditions: Liquid, Vibrating tube method

CCCCCCCCCCCCCCCC [hexadecane] + CCCCCCCCCC
mass density [kg/m3]
Conditions | 1000 kPa | 2000 kPa | 3000 kPa | 4000 kPa | 5000 kPa | 6000 kPa | 7000 kPa | 8000 kPa | 9000 kPa | 10000 kPa
295 K, x2 = 0.25 | 760.6 | 761.3 | 762 | 762.6 | 763.3 | 764 | 764.6 | 765.3 | 765.9 | 766.6
295 K, x2 = 0.75 | 739.6 | 740.4 | 741.1 | 741.8 | 742.5 | 743.3 | 744 | 744.7 | 745.4 | 746.2
295.3 K, x2 = 0.5 | 751 | 751.7 | 752.4 | 753.1 | 753.8 | 754.5 | 755.1 | 755.8 | 756.5 | 757.2
